Assay results published in PMC11594329, “Development of LAT1-Selective Nuclear Medicine Therapeutics Using Astatine-211” (International Journal of Molecular Sciences, 2024).

Tests used:
Type in all cases: in vivo
[1] = Urinary and fecal excretion in PANC-1 tumor bearing mice
Experimental: (§1) Urinary excretion levels were also examined (Supplementary Table S1). Comparing the D-isomer and L isomer of ^211At-AAMT-O-Me from ICR mice, the D-isomer; 24.84 ± 13.03% ID, L-isomer; 33.69 ± 1.26% ID at 1 h after injection. D-isomer; 71.36 ± 4.67% ID, L-isomer; 23.99 ± 2.40% ID at 3 h after injection. From PANC-1 tumor bearing mice, D-isomer; 35.24 ± 8.70% ID, L-isomer; 20.40 ± 0.76% ID at 1 h after injection. D-isomer; 47.38 ± 3.19% ID, L-isomer; 3.23 ± 0.67% ID at 3 h after injection. In tumor-bearing models, the amount of excretion was smaller than that in normal mice. We have already reported that, in the presence of target cancer tissue for administered drugs, retention in the cancer tissue results in reduced excretion compared with normal animals. […] The same was also observed for feces, but very little was excreted in the feces. The results were as follows: from ICR mice, D-isomer; 0.06 ± 0.03% ID, L-isomer; 0.004 ± 0.003% ID at 1 h after injection. D-isomer; 0.02 ± 0.01% ID, L-isomer; 0.02 ± 0.01% ID at 3 h after injection. From PANC-1 tumor bearing mice, D-isomer; 0.25 ± 0.12% ID, L-isomer; 0.002 ± 0.001% ID at 1 h after injection. D-isomer; 0.75 ± 0.46% ID; L-isomer; 0.07 ± 0.03% ID at 3 h after injection.
BALB/c nu/nu mice (male, 5 weeks old) were purchased from Japan SLC (Shizuoka, Japan) and subcutaneously transplanted at a density of 1 × 10^7 cells/mouse. PANC-1 cells that reached the logarithmic growth phase were transplanted subcutaneously by mixing a 1 × 10^8 cells/mL cell suspension with an equivalent volume of Matrigel (Corning, Corning, NY, USA) to obtain 1 × 10^7 cells per mouse. Experiments were performed after the size of the transplanted tumor had exceeded 50 mm^3. The doses in the distribution experiments were as follows: ^211At-AAMT-OH-L (0.501 ± 0.011 MBq/mouse, 19.91 ± 0.59 g, n = 3) and ^211At-AAMT-O-Me-L (0.384 ± 0.003 MBq/mouse, 19.18 ± 0.38 g, n = 6 for Table 3), ^211At-AAMT-O-Me-L (158.10 ± 2.94 kBq/mouse, 19.27 ± 0.64 g, n = 6) and ^211At-AAMT-O-Me-D (135.08 ± 2.35 kBq/mouse, 18.64 ± 0.97 g, n = 6), ^211At-AAMT-O-Et-L (0.682 ± 0.011 MBq/mouse, 20.25 ± 1.41 g, n = 6), ^211At-AAMT-O-Pr-L (0.927 ± 0.020 MBq/mouse, 21.74 ± 0.37 g, n = 6).

[2] = Tissue distribution in ICR mice (normal animals)
Excerpt: (§2) ICR mice (male, 5 weeks old) were purchased from Japan SLC (Shizuoka, Japan) and acclimated for one week prior to use. The doses in the distribution experiments were as follows: ^211At-AAMT-O-Me-L (0.407 ± 0.005 MBq/mouse, 31.64 ± 0.76 g, n = 6), ^211At-AAMT-O-Me-D (0.351 ± 0.004 MBq/mouse, 31.44 ± 0.94 g, n = 6), ^211At-AAMT-O-Et-L (0.685 ± 0.010 MBq/mouse, 24.14 ± 3.31 g, n = 6), ^211At-AAMT-O-Pr-L (1.09 ± 0.06 MBq/mouse, 26.33 ± 0.39 g, n = 6)

[3] = Urinary and fecal excretion in ICR mice
Experimental: as §1, §2

SMILES: COc1ccc(C[C@@](C)(N)C(=O)O)cc1[211At] [^211At-AAMT-O-Me-D]
- Excretion in feces ([1]; 1 h after injection): 0.25 ± 0.12 % ID
- Urinary excretion ([1]; 1 h after injection): 35.24 ± 8.70 % ID
- Excretion in feces ([1]; 3 h after injection): 0.75 ± 0.46 % ID
- Urinary excretion ([1]; 3 h after injection): 47.38 ± 3.19 % ID
- Tissue distribution, Bladder ([2]; 1 h after injection): 10.62 ± 8.22 %ID/g
- Tissue distribution, Blood ([2]; 1 h after injection): 1.90 ± 0.57 %ID/g
- Tissue distribution, Bone ([2]; 1 h after injection): 0.93 ± 0.35 %ID/g
- Tissue distribution, Brain ([2]; 1 h after injection): 0.15 ± 0.01 %ID/g
- Tissue distribution, Cecum ([2]; 1 h after injection): 0.47 ± 0.19 %ID/g
- Tissue distribution, Colon ([2]; 1 h after injection): 2.54 ± 1.55 %ID/g
- Tissue distribution, Heart ([2]; 1 h after injection): 3.20 ± 1.26 %ID/g
- Tissue distribution, Kidney ([2]; 1 h after injection): 1.48 ± 0.39 %ID/g
- Tissue distribution, Liver ([2]; 1 h after injection): 0.58 ± 0.11 %ID/g
- Tissue distribution, Lung ([2]; 1 h after injection): 2.84 ± 1.11 %ID/g
- Tissue distribution, Pancreas ([2]; 1 h after injection): 2.38 ± 1.36 %ID/g
- Tissue distribution, Salivary glands ([2]; 1 h after injection): 4.67 ± 1.03 %ID/g
- Tissue distribution, Small intestine ([2]; 1 h after injection): 2.66 ± 1.23 %ID/g
- Tissue distribution, Spleen ([2]; 1 h after injection): 2.92 ± 1.49 %ID/g
- Tissue distribution, Stomach ([2]; 1 h after injection): 6.34 ± 2.74 %ID/g
- Tissue distribution, Testis ([2]; 1 h after injection): 1.84 ± 0.23 %ID/g
- Tissue distribution, Thymus ([2]; 1 h after injection): 1.89 ± 0.90 %ID/g
- Tissue distribution, Thyroid ([2]; 1 h after injection): 8.06 ± 3.56 %ID/g
- Tissue distribution, Bladder ([2]; 3 h after injection): 0.19 ± 0.11 %ID/g
- Tissue distribution, Blood ([2]; 3 h after injection): 0.38 ± 0.16 %ID/g
- Tissue distribution, Bone ([2]; 3 h after injection): 0.28 ± 0.11 %ID/g
- Tissue distribution, Brain ([2]; 3 h after injection): 0.04 ± 0.00 %ID/g
- Tissue distribution, Cecum ([2]; 3 h after injection): 0.50 ± 0.23 %ID/g
- Tissue distribution, Colon ([2]; 3 h after injection): 0.95 ± 0.59 %ID/g
- Tissue distribution, Heart ([2]; 3 h after injection): 0.43 ± 0.20 %ID/g
- Tissue distribution, Kidney ([2]; 3 h after injection): 0.73 ± 0.15 %ID/g
- Tissue distribution, Liver ([2]; 3 h after injection): 1.34 ± 0.47 %ID/g
- Tissue distribution, Lung ([2]; 3 h after injection): 0.69 ± 0.28 %ID/g
- Tissue distribution, Pancreas ([2]; 3 h after injection): 0.42 ± 0.28 %ID/g
- Tissue distribution, Salivary glands ([2]; 3 h after injection): 0.96 ± 0.16 %ID/g
- Tissue distribution, Small intestine ([2]; 3 h after injection): 5.33 ± 2.18 %ID/g
- Tissue distribution, Spleen ([2]; 3 h after injection): 0.42 ± 0.14 %ID/g
- Tissue distribution, Stomach ([2]; 3 h after injection): 8.08 ± 3.50 %ID/g
- Tissue distribution, Testis ([2]; 3 h after injection): 0.31 ± 0.02 %ID/g
- Tissue distribution, Thymus ([2]; 3 h after injection): 0.18 ± 0.06 %ID/g
- Tissue distribution, Thyroid ([2]; 3 h after injection): 0.42 ± 0.20 %ID/g
- Excretion in feces ([3]; 1 h after injection): 0.06 ± 0.03 % ID
- Urinary excretion ([3]; 1 h after injection): 24.84 ± 13.03 % ID
- Excretion in feces ([3]; 3 h after injection): 0.02 ± 0.01 % ID
- Urinary excretion ([3]; 3 h after injection): 71.36 ± 4.67 % ID
- Urinary content ([3]; after 3 h): exceeded 70%

SMILES: COc1ccc(C[C@](C)(N)C(=O)O)cc1[211At] [^211At-AAMT-O-Me-L, (S)-2-amino-3-(3-(astato-^211At)-4-methoxyphenyl)-2-methylpropanic acid]
- Excretion in feces ([1]; 1 h after injection): 0.002 ± 0.001 % ID
- Urinary excretion ([1]; 1 h after injection): 20.40 ± 0.76 % ID
- Excretion in feces ([1]; 3 h after injection): 0.07 ± 0.03 % ID
- Urinary excretion ([1]; 3 h after injection): 3.23 ± 0.67 % ID
- Tissue distribution, Bladder ([2]; 1 h after injection): 7.10 ± 1.15 %ID/g
- Tissue distribution, Blood ([2]; 1 h after injection): 1.57 ± 0.10 %ID/g
- Tissue distribution, Bone ([2]; 1 h after injection): 1.33 ± 0.16 %ID/g
- Tissue distribution, Brain ([2]; 1 h after injection): 0.32 ± 0.02 %ID/g
- Tissue distribution, Cecum ([2]; 1 h after injection): 0.85 ± 0.04 %ID/g
- Tissue distribution, Colon ([2]; 1 h after injection): 0.93 ± 0.13 %ID/g
- Tissue distribution, Heart ([2]; 1 h after injection): 2.01 ± 0.15 %ID/g
- Tissue distribution, Kidney ([2]; 1 h after injection): 2.47 ± 0.24 %ID/g
- Tissue distribution, Liver ([2]; 1 h after injection): 1.11 ± 0.10 %ID/g
- Tissue distribution, Lung ([2]; 1 h after injection): 6.42 ± 1.52 %ID/g
- Tissue distribution, Pancreas ([2]; 1 h after injection): 1.52 ± 0.17 %ID/g
- Tissue distribution, Salivary glands ([2]; 1 h after injection): 7.16 ± 1.54 %ID/g
- Tissue distribution, Small intestine ([2]; 1 h after injection): 1.82 ± 0.08 %ID/g
- Tissue distribution, Spleen ([2]; 1 h after injection): 5.01 ± 1.42 %ID/g
- Tissue distribution, Stomach ([2]; 1 h after injection): 13.65 ± 2.40 %ID/g
- Tissue distribution, Testis ([2]; 1 h after injection): 2.31 ± 0.04 %ID/g
- Tissue distribution, Thymus ([2]; 1 h after injection): 2.03 ± 0.50 %ID/g
- Tissue distribution, Thyroid ([2]; 1 h after injection): 13.12 ± 1.72 %ID/g
- Tissue distribution, Bladder ([2]; 3 h after injection): 0.10 ± 0.01 %ID/g
- Tissue distribution, Blood ([2]; 3 h after injection): 1.17 ± 0.24 %ID/g
- Tissue distribution, Bone ([2]; 3 h after injection): 0.53 ± 1.31 %ID/g
- Tissue distribution, Brain ([2]; 3 h after injection): 0.10 ± 0.02 %ID/g
- Tissue distribution, Cecum ([2]; 3 h after injection): 0.95 ± 0.11 %ID/g
- Tissue distribution, Colon ([2]; 3 h after injection): 0.80 ± 0.12 %ID/g
- Tissue distribution, Heart ([2]; 3 h after injection): 0.34 ± 0.02 %ID/g
- Tissue distribution, Kidney ([2]; 3 h after injection): 1.11 ± 0.15 %ID/g
- Tissue distribution, Liver ([2]; 3 h after injection): 2.57 ± 0.17 %ID/g
- Tissue distribution, Lung ([2]; 3 h after injection): 1.34 ± 0.32 %ID/g
- Tissue distribution, Pancreas ([2]; 3 h after injection): 0.19 ± 0.04 %ID/g
- Tissue distribution, Salivary glands ([2]; 3 h after injection): 1.77 ± 0.19 %ID/g
- Tissue distribution, Small intestine ([2]; 3 h after injection): 3.91 ± 0.20 %ID/g
- Tissue distribution, Spleen ([2]; 3 h after injection): 0.80 ± 0.19 %ID/g
- Tissue distribution, Stomach ([2]; 3 h after injection): 16.96 ± 1.89 %ID/g
- Tissue distribution, Testis ([2]; 3 h after injection): 0.52 ± 0.06 %ID/g
- Tissue distribution, Thymus ([2]; 3 h after injection): 0.14 ± 0.03 %ID/g
- Tissue distribution, Thyroid ([2]; 3 h after injection, listed as L-Isomer): 0.65 ± 0.16 %ID/g
- Excretion in feces ([3]; 1 h after injection): 0.004 ± 0.003 % ID
- Urinary excretion ([3]; 1 h after injection): 33.69 ± 1.26 % ID
- Excretion in feces ([3]; 3 h after injection): 0.02 ± 0.01 % ID
- Urinary excretion ([3]; 3 h after injection): 23.99 ± 2.40 % ID
